This note sets out measurements from patent publication US9296741B2, “Bromodomain inhibitors” (priority 2012, dated 2016).

For series [1], the system named is breast cancer cell line MX-1. The series can be described thus: MX-1 cell line proliferation assay. It is filed as cell-based, human. Particulars: Homo sapiens, MX1, 72 h; MX-1 cells, 3-day proliferation, Cell Titer Glo; read-out: Cellular proliferation: EC50. For orientation: In ATP-based viability assays light output follows the ATP content of the culture.
Series [2] concerns the target human BRD4 first bromodomain (BDI_K57-E168) (Homo sapiens (Human), UniProt O60885). Put plainly: TR-FRET bromodomain binding assay, BRD4 first bromodomain. (In TR-FRET formats the signal depends on donor and acceptor labels being close together.)
Series [3] has as its target human BRD4 second bromodomain (BDII_E352-M457) (Homo sapiens (Human), UniProt O60885). Put plainly: TR-FRET bromodomain binding assay, BRD4 second bromodomain.
Series [4] is described as follows: Human liver microsome stability assay. Particulars: both sexes, human, microsomes, pH 7.4. It is filed as in vitro ADME. In general terms: Liver microsomes are vesicles of endoplasmic reticulum, rich in cytochrome P450 enzymes.
Series [5] is described as follows: Rat liver microsome stability assay. It is filed as in vitro ADME. The following applies: rat liver microsomes (male Sprague-Dawley), 0.5 μM test compound, pH 7.4, 37° C.; for half-life at 0.5 μM: 0.25 mg/mL microsomal protein, read-out: Stability in rat liver microsomes (t1/2 in minutes).

pEC50, pKi: −log10 of the molar value.

As to `Cn1nc(-c2cc(NS(C)(=O)=O)ccc2Oc2ccccc2)c2cc(C(=O)O)[nH]c2c1=O` [Example 77, 6-methyl-4-{5-[(methylsulfonyl)amino]-2-phenoxyphenyl}-7-oxo-6,7-dihydro-1H-pyrrolo[2,3-d]pyridazine-2-carboxylic acid], the pEC50 in series [1] was less than 5.52.
Usually pKi stands for −log10 of the Ki, conventionally taken in molar units. Read a low pKi as a large Ki. Take `Cn1cc(-c2cc(S(C)(=O)=O)ccc2Oc2cccc3ccccc23)c2cc[nH]c2c1=O` [Example 185, 6-methyl-4-[5-(methylsulfonyl)-2-(naphthalen-1-yloxy)phenyl]-1,6-dihydro-7H-pyrrolo[2,3-c]pyridin-7-one]: the pKi in series [2] was 7.46; in series [3], 7.91.
The corresponding values for `Cn1cc(-c2cc(S(C)(=O)=O)ccc2Oc2ccccc2C#N)c2cc[nH]c2c1=O` [Example 183, 2-[2-(6-methyl-7-oxo-6,7-dihydro-1H-pyrrolo[2,3-c]pyridin-4-yl)-4-(methylsulfonyl)phenoxy]benzonitrile] are 7.39 and 7.70.
Take `Cn1cc(-c2cc(NC(=O)CC(F)(F)F)ccc2Oc2ccc(F)cc2F)c2cc[nH]c2c1=O` [Example 38, N-[4-(2,4-difluorophenoxy)-3-(6-methyl-7-oxo-6,7-dihydro-1H-pyrrolo[2,3-c]pyridin-4-yl)phenyl]-3,3,3-trifluoropropanamide]: the negative-log Ki (pKi) is 6.83 in series [2] and 6.59 in series [3]. Moreover, the half-life at 0.5 μM in series [4] came to 16.8 min; in series [5], 25 min.
Take `CN1CCN(CCNC(=O)c2cc3c(-c4cc(NS(C)(=O)=O)ccc4Oc4ccccc4)nn(C)c(=O)c3[nH]2)CC1` [Example 79, 6-methyl-N-[2-(4-methylpiperazin-1-yl)ethyl]-4-{5-[(methylsulfonyl)amino]-2-phenoxyphenyl}-7-oxo-6,7-dihydro-1H-pyrrolo[2,3-d]pyridazine-2-carboxamide]: in series [1], the pEC50 was 6.05.
Turning to `Cn1cc(-c2cc(C(=O)N3CCS(=O)(=O)CC3)ccc2Oc2ccc(F)cc2F)c2cc[nH]c2c1=O` [Example 52, 4-{2-(2,4-difluorophenoxy)-5-[(1,1-dioxidothiomorpholin-4-yl)carbonyl]phenyl}-6-methyl-1,6-dihydro-7H-pyrrolo[2,3-c]pyridin-7-one], the pEC50 in series [1] is 6.51.
As for `Cn1cc(-c2cc(S(C)(=O)=O)ccc2Oc2ccc3c(c2)CCC3=O)c2cc[nH]c2c1=O` [Example 181, 6-methyl-4-{5-(methylsulfonyl)-2-[(1-oxo-2,3-dihydro-1H-inden-5-yl)oxy]phenyl}-1,6-dihydro-7H-pyrrolo[2,3-c]pyridin-7-one], the results for the pKi in series [2] and in series [3] were 7.52 and 7.65, respectively.
The corresponding values for `Cn1cc(-c2cc(S(C)(=O)=O)ccc2Oc2ccc3c(c2)C(=O)CC3)c2cc[nH]c2c1=O` [Example 182, 6-methyl-4-{5-(methylsulfonyl)-2-[(3-oxo-2,3-dihydro-1H-inden-5-yl)oxy]phenyl}-1,6-dihydro-7H-pyrrolo[2,3-c]pyridin-7-one] are 7.72 and 8.01.
Consider `Cn1cc(-c2cc(N)ccc2Oc2ccccc2)c2cc[nH]c2c1=O` [Example 3, 4-(5-amino-2-phenoxyphenyl)-6-methyl-1,6-dihydro-7H-pyrrolo[2,3-c]pyridin-7-one], for which the pEC50 in series [1] is 6.73.
Turning to `Cn1cc(-c2cc(Cn3cccn3)ccc2Oc2ccccc2)c2cc[nH]c2c1=O` [Example 30, 6-methyl-4-[2-phenoxy-5-(1H-pyrazol-1-ylmethyl)phenyl]-1,6-dihydro-7H-pyrrolo[2,3-c]pyridin-7-one], in series [1], the pEC50 was 6.25.
Regarding `Cn1cc(-c2ccccc2Cc2ccccc2)c2cc[nH]c2c1=O` [Example 195, 4-(2-benzylphenyl)-6-methyl-1,6-dihydro-7H-pyrrolo[2,3-c]pyridin-7-one], the pKi is 5.26 in series [2] and 5.99 in series [3]. Besides, in series [4], the half-life at 0.5 μM was found to be 13 min. Also, in series [5] ([…] microsomal protein), the “Stability in rat liver microsomes (t1/2 in minutes)” value was determined as 1 min.
Regarding `CN(C)S(=O)(=O)c1cnc(OC2CCOC2)c(-c2cn(C)c(=O)c3[nH]ccc23)c1` (stereo not drawn) [Example 110, N,N-dimethyl-5-(6-methyl-7-oxo-6,7-dihydro-1H-pyrrolo[2,3-c]pyridin-4-yl)-6-(tetrahydrofuran-3-yloxy)pyridine-3-sulfonamide], the pEC50 in series [1] was 7.49.
Take `Cc1c(NS(C)(=O)=O)ccc(OCC2CC2)c1-c1cn(C)c(=O)c2[nH]ccc12` [Example 262, N-[4-(cyclopropylmethoxy)-2-methyl-3-(6-methyl-7-oxo-6,7-dihydro-1H-pyrrolo[2,3-c]pyridin-4-yl)phenyl]methanesulfonamide]: the pKi in series [2] was 6.90; in series [3], 6.31. Moreover, the values for the half-life at 0.5 μM in series [4] and in series [5] were greater than 120 min and 25 min, respectively.
For `Cc1cccc(OCC2CC2)c1-c1cn(C)c(=O)c2[nH]ccc12` [Example 247, 4-[2-(cyclopropylmethoxy)-6-methylphenyl]-6-methyl-1,6-dihydro-7H-pyrrolo[2,3-c]pyridin-7-one], the pKi in series [2] was 5.96; in series [3], 5.52.
On to `Cn1cc(-c2cc(C(=O)NCCc3ccc4c(c3)OCO4)ccc2Oc2ccc(F)cc2F)c2cc[nH]c2c1=O` [Example 132, N-[2-(1,3-benzodioxol-5-yl)ethyl]-4-(2,4-difluorophenoxy)-3-(6-methyl-7-oxo-6,7-dihydro-1 H-pyrrolo[2,3-c]pyridin-4-yl)benzamide], for which the pKi in series [2] was 6.62; in series [3], 6.46.
For the molecule `COc1ccc2[nH]cc(CCNC(=O)c3ccc(Oc4ccc(F)cc4F)c(-c4cn(C)c(=O)c5[nH]ccc45)c3)c2c1` [Example 124, 4-(2,4-difluorophenoxy)-N-[2-(5-methoxy-1H-indol-3-yl)ethyl]-3-(6-methyl-7-oxo-6,7-dihydro-1H-pyrrolo[2,3-c]pyridin-4-yl)benzamide], the results for the pKi in series [2] and in series [3] were 6.49 and 6.77, respectively. In addition, the half-life at 0.5 μM stood at 2 min in series [4] and 4 min in series [5].
In the case of `Cn1cc(-c2cc(C(=O)Nc3ncccn3)ccc2Oc2ccc(F)cc2F)c2cc[nH]c2c1=O` [Example 116, 4-(2,4-difluorophenoxy)-3-(6-methyl-7-oxo-6,7-dihydro-1H-pyrrolo[2,3-c]pyridin-4-yl)-N-(pyrimidin-2-yl)benzamide], the pKi in series [2] is 6.98; in series [3], 7.05.
Regarding `Cn1cc(-c2cc(S(C)(=O)=O)ccc2Oc2ccc(Cl)c(F)c2)c2cc[nH]c2c1=O` [Example 189, 4-[2-(4-chloro-3-fluorophenoxy)-5-(methylsulfonyl)phenyl]-6-methyl-1,6-dihydro-7H-pyrrolo[2,3-c]pyridin-7-one], the pKi in series [2] was 7.52; in series [3], 7.64. In addition, the half-life at 0.5 μM was determined as 34 min in series [4] and 55 min in series [5].
In the case of `Cn1cc(-c2cc(C(F)(F)F)ccc2Oc2ccc(F)cc2F)c2cc[nH]c2c1=O` [Example 275, 4-[2-(2,4-difluorophenoxy)-5-(trifluoromethyl)phenyl]-6-methyl-1,6-dihydro-7H-pyrrolo[2,3-c]pyridin-7-one], the pKi is 6.28 in series [2] and 5.95 in series [3].
As to `Cn1cc(-c2cc(S(C)(=O)=O)ccc2Oc2cccc(Cl)c2F)c2cc[nH]c2c1=O` [Example 184, 4-[2-(3-chloro-2-fluorophenoxy)-5-(methylsulfonyl)phenyl]-6-methyl-1,6-dihydro-7H-pyrrolo[2,3-c]pyridin-7-one], the pEC50 in series [1] was 7.10.
For the molecule `Cn1cc(-c2cc(S(C)(=O)=O)ccc2Oc2cccc3c2CCC3=O)c2cc[nH]c2c1=O` [Example 175, 6-methyl-4-{5-(methylsulfonyl)-2-[(1-oxo-2,3-dihydro-1H-inden-4-yl)oxy]phenyl}-1,6-dihydro-7H-pyrrolo[2,3-c]pyridin-7-one], the pKi was 7.59 in series [2] and 7.75 in series [3].
Regarding `Cn1cc(-c2cc(NC(=O)C(C)(C)C)ccc2Oc2ccc(F)cc2F)c2cc[nH]c2c1=O` [Example 39, N-[4-(2,4-difluorophenoxy)-3-(6-methyl-7-oxo-6,7-dihydro-1H-pyrrolo[2,3-c]pyridin-4-yl)phenyl]-2,2-dimethylpropanamide], the pKi in series [2] is 6.95; in series [3], 6.91. The half-life at 0.5 μM was determined as 9.7 min in series [4] and 8 min in series [5].
For the molecule `COc1cc(CNC(=O)c2ccc(Oc3ccc(F)cc3F)c(-c3cn(C)c(=O)c4[nH]ccc34)c2)cc(OC)c1OC` [Example 130, 4-(2,4-difluorophenoxy)-3-(6-methyl-7-oxo-6,7-dihydro-1H-pyrrolo[2,3-c]pyridin-4-yl)-N-(3,4,5-trimethoxybenzyl)benzamide], the pKi in series [2] is 6.74; in series [3], 6.76.
As for `COc1ccc(NC(=O)c2ccc(Oc3ccc(F)cc3F)c(-c3cn(C)c(=O)c4[nH]ccc34)c2)c(OC)n1` [Example 117, 4-(2,4-difluorophenoxy)-N-(2,6-dimethoxypyridin-3-yl)-3-(6-methyl-7-oxo-6,7-dihydro-1H-pyrrolo[2,3-c]pyridin-4-yl)benzamide], the pKi in series [2] is 5.64; in series [3], 6.31. Further, the half-life at 0.5 μM in series [4] stood at 34 min; in series [5], 36 min.
Turning to `Cn1cc(-c2cc(C(=O)NC3CCN(C(=O)OC(C)(C)C)CC3)ccc2Oc2ccc(F)cc2F)c2cc[nH]c2c1=O` [Example 136, tert-butyl 4-{[4-(2,4-difluorophenoxy)-3-(6-methyl-7-oxo-6,7-dihydro-1H-pyrrolo[2,3-c]pyridin-4-yl)benzoyl]amino}piperidine-1-carboxylate], the pKi in series [2] was 6.63; in series [3], 6.53.
